Results reported in the NIST ThermoML archive (doi:10.1021/je300382a).
Numbers after ± are expanded uncertainties.

Tests used:
[1] = refractive index (Na D-line) (dimensionless); xn = mol fraction of the nth substance listed; conditions: 101 kPa, Liquid, Standard Abbe refractometry, x2 = 0
[2] = xn = mol fraction of the nth substance listed; conditions: Ring tensiometer, x2 = 0
[3] = Ring tensiometer
[4] = refractive index (Na D-line) (dimensionless); conditions: 101.33 kPa, Liquid, Standard Abbe refractometry

| refractive index ([1]; 283.15 K) | refractive index ([1]; 293.15 K) | refractive index ([1]; 303.15 K) | refractive index ([1]; 313.15 K) | refractive index ([1]; 323.15 K) | surface tension liquid-gas ([2]; 283.15 K) | surface tension liquid-gas ([2]; 293.15 K) | surface tension liquid-gas ([2]; 303.15 K) | surface tension liquid-gas ([2]; 313.15 K) | surface tension liquid-gas ([2]; 323.15 K) | surface tension liquid-gas ([3]; 283.15 K) | surface tension liquid-gas ([3]; 293.15 K) | surface tension liquid-gas ([3]; 303.15 K) | surface tension liquid-gas ([3]; 313.15 K) | surface tension liquid-gas ([3]; 323.15 K) | refractive index ([4]; 283.15 K) | refractive index ([4]; 293.15 K) | refractive index ([4]; 303.15 K) | refractive index ([4]; 313.15 K) | refractive index ([4]; 323.15 K) | Compound |
| --- | --- | --- | --- | --- | --- | --- | --- | --- | --- | --- | --- | --- | --- | --- | --- | --- | --- | --- | --- | --- |
| 1.3343 ± 0.0003 | 1.333 ± 0.0003 | 1.3319 ± 0.0003 | 1.3306 ± 0.0003 | 1.329 ± 0.0003 | 74.2 ± 0.9 mN/m | 72.6 ± 0.9 mN/m | 71.1 ± 0.9 mN/m | 69.2 ± 0.9 mN/m | 67.7 ± 0.9 mN/m | – | – | – | – | – | – | – | – | – | – | O [water] + NCc1ccccc1 |
| 1.3343 ± 0.0003 | 1.333 ± 0.0003 | 1.3319 ± 0.0003 | 1.3306 ± 0.0003 | 1.329 ± 0.0003 | 74.2 ± 0.9 mN/m | 72.6 ± 0.9 mN/m | 71.3 ± 0.9 mN/m | 69.2 ± 0.9 mN/m | 67.7 ± 0.9 mN/m | – | – | – | – | – | – | – | – | – | – | O [water] + CC(N)CN |
| – | – | – | – | – | – | – | – | – | – | 35 ± 0.5 mN/m | 33.8 ± 0.5 mN/m | 32.7 ± 0.5 mN/m | 31.4 ± 0.5 mN/m | 30.3 ± 0.5 mN/m | 1.451 ± 0.0004 | 1.4458 ± 0.0004 | 1.4409 ± 0.0004 | 1.4362 ± 0.0004 | 1.4314 ± 0.0004 | CC(N)CN (stereo not given) [1,2-propanediamine] |
| – | – | – | – | – | – | – | – | – | – | 37.9 ± 0.6 mN/m | 37.1 ± 0.5 mN/m | 36.3 ± 0.5 mN/m | 35.6 ± 0.5 mN/m | 35 ± 1 mN/m | 1.5516 ± 0.0004 | 1.5445 ± 0.0004 | 1.5393 ± 0.0004 | 1.5328 ± 0.0004 | 1.5279 ± 0.0004 | NCc1ccccc1 [benzylamine] |
